Results published in ChEMBL document CHEMBL1201862, “PubChem BioAssay data set” (2004).
Calls of active or inactive are those of the source.

Tests used:
[1] = HEK293 cell viability, dose response, counter-screen for EBV LMP1 inhibitor project, dry powder, set 2 (AID 624374); format: functional
[2] = target: ADP-ribosylation factor GTPase-activating protein 1 (Rattus norvegicus, UniProt Q62848); test: Fluorescence polarization-based biochemical high throughput dose response screening assay to identify inhibitors of ADP-ribosylation factor GTPase activating protein 1 (ARFGAP1).; format: functional
Beta-lactamase [3] = target: Beta-lactamase (Salmonella choleraesuis (strain SC-B67), UniProt Q5J463); test: Epi-absorbance-based counterscreen for selective VIM-2 inhibitors: dose response biochemical high throughput screening assay to identify inhibitors of TEM-1 serine-beta-lactamase.
Beta Lactamase [4] = target: T1, Beta Lactamase (Pseudomonas aeruginosa, UniProt Q932Y6); test: VIM-2 inhibitor FRET-based artefact check, dose response, artefact control for selective VIM-2 inhibitor project, biochemical, FRET readout, CCF2 substrate (AID 1926)
Beta Lactamase [5] = target: T1, Beta Lactamase; test: VIM-2 metallo-beta-lactamase inhibitor potency, dose response, biochemical, epi-absorbance readout, selective inhibitors (AID 1919)
Beta-lactamase [6] = target: T2, Beta-lactamase (Pseudomonas aeruginosa, UniProt Q79MP6); test: IMP-1 metallo-beta-lactamase inhibitors, dose response, selectivity assay for VIM-2 inhibitor project, biochemical, epi-absorbance (AID 1920)
[7] = target: T3, Carboxy-terminal domain RNA polymerase II polypeptide A small phosphatase 1 (Homo sapiens, UniProt Q9GZU7); test: inhibitors of CTDSP1, concentration-response testing, biochemical assay, absorbance-based, actives from ultra-high-throughput screening (AID 540297); format: functional
T3 sequence (Q9GZU7 whole entry): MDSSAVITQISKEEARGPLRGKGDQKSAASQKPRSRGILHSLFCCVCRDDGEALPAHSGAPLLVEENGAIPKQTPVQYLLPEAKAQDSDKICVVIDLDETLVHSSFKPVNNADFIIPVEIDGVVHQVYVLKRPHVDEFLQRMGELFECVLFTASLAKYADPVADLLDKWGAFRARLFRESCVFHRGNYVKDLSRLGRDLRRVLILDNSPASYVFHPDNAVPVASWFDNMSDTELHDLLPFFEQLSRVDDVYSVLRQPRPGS

Beta-lactamase [8] = target: T2, Beta-lactamase; test: […] counterscreen for selective VIM-2 inhibitors: dose response biochemical high throughput screening assay to identify inhibitors of IMP-1 metallo-beta-lactamase.
Genome polyprotein = Genome polyprotein (dengue virus type 2, UniProt P29990); test: Dengue-2 NS5 methyltransferase inhibitors, primary screen, biochemical, confirmation dose response (AID 588689); format: functional
[9] = target: Polyadenylate-binding protein 1 (Homo sapiens, UniProt P11940); test: PABP poly(A) RNA binding inhibitors, primary screen, biochemical, fluorescence polarization, uHTS (AID 2014)
[10] = target: T4, Tyrosine-protein phosphatase non-receptor type 5 (Homo sapiens, UniProt P54829); test: STEP phosphatase inhibitors, confirmation, biochemical, fluorescence intensity, uHTS hits (AID 602372); format: functional; conditions: read-out: IC50_Mean
T4 sequence (P54829 whole entry): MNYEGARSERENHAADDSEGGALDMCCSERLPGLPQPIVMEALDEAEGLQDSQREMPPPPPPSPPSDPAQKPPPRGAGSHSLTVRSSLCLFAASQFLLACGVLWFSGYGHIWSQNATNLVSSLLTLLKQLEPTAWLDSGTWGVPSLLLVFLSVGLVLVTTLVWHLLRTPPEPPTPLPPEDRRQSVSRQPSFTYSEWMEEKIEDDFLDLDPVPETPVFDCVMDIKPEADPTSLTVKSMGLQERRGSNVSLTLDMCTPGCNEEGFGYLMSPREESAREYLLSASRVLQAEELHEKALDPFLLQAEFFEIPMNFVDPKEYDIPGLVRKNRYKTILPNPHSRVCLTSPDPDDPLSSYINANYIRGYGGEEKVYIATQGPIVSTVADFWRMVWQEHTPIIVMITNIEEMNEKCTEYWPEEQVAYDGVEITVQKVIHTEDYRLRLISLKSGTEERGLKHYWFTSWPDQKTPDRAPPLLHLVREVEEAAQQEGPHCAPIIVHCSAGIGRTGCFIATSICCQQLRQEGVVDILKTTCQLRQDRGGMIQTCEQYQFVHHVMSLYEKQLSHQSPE

[11] = target: T5, Small ubiquitin-related modifier 1 (Homo sapiens, UniProt P63165); test: inhibitors of SUMO1 peptide binding, dose response, biochemical, fluorescence polarization, uHTS hits (AID 624382); format: functional; conditions: read-out: IC50_Mean
[12] = target: T6, Tyrosine-protein phosphatase non-receptor type 11 (Homo sapiens, UniProt Q06124); test: SHP2 phosphatase inhibition, dose response, selectivity assay for STEP inhibitor project, biochemical (AID 602367); format: functional; conditions: read-out: IC50_Mean
T6 sequence (Q06124 whole entry): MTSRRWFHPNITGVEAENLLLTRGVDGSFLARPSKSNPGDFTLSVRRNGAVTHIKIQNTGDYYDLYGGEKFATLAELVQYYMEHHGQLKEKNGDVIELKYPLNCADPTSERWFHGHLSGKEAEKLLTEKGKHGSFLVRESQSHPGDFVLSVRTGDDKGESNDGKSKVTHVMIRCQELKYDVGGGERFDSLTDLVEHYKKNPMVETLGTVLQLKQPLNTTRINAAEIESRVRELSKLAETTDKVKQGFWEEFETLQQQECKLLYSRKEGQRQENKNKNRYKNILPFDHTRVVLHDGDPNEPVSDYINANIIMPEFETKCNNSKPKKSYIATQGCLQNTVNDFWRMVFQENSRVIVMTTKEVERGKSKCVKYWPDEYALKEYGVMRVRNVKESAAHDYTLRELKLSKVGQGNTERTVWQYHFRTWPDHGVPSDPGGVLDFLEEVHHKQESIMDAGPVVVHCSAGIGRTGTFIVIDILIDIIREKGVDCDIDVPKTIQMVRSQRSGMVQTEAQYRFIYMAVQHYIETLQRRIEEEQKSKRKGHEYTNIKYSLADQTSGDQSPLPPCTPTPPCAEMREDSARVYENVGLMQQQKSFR

[13] = target: T7, Small ubiquitin-related modifier 2 (Homo sapiens, UniProt P61956); test: inhibitors of SUMO2 protein-protein interaction, dose response, selectivity assay for SUMO1 interaction inhibitor project, biochemical, FRET, human SUMO2, uHTS hits (AID 624384); format: functional; conditions: read-out: IC50_Mean
[14] = target: T7, Small ubiquitin-related modifier 2; test: SUMO2–SIM peptide binding inhibitors, dose response, selectivity assay for SUMO1 interaction inhibitor project, biochemical, fluorescence polarization, uHTS hits (AID 624385); format: functional; conditions: read-out: IC50_Mean
[15] = target: T5, Small ubiquitin-related modifier 1; test: inhibitors of SUMO1 partner interactions, dose response, biochemical, FRET (AID 624383); format: functional; conditions: read-out: IC50_Mean
[16] = target: Dual specificity protein phosphatase 3 (Homo sapiens, UniProt P51452); test: VHR phosphatase inhibition, dose response, selectivity assay for STEP inhibitor project, biochemical (AID 602374); format: functional; conditions: read-out: IC50_Mean
[17] = target: Eukaryotic translation initiation factor 4H (Homo sapiens, UniProt Q15056); test: human eIF4H binding inhibitors, primary screen, translation initiation inhibitor project, biochemical, uHTS, fluorescence polarization (AID 2012)
[18] = target: T8, Tyrosine-protein phosphatase non-receptor type 22 (Homo sapiens, UniProt Q9Y2R2); test: PTPN22 phosphatase inhibition, dose response, selectivity assay for STEP inhibitor project, biochemical (AID 624241); format: functional
T8 sequence (Q9Y2R2 whole entry): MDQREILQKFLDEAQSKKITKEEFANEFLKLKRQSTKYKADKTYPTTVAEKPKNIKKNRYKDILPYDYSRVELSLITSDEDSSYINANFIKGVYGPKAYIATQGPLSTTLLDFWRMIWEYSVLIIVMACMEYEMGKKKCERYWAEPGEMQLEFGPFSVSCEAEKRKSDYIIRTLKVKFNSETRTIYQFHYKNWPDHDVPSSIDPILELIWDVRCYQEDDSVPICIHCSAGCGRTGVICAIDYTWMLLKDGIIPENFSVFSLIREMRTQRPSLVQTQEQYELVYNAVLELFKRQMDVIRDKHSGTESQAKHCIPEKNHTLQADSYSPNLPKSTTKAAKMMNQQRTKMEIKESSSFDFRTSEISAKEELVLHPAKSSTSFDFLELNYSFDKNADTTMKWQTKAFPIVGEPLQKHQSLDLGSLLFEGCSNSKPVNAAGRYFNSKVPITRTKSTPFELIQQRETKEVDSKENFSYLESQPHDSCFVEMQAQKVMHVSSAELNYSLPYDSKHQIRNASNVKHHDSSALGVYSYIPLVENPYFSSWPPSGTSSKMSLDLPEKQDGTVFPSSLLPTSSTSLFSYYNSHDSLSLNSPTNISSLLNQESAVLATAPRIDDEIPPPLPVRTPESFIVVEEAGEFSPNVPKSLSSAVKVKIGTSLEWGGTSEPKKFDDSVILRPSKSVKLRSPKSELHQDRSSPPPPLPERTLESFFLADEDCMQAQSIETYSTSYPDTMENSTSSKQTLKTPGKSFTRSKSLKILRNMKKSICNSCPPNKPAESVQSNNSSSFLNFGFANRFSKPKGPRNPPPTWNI

[19] = target: T9, DNA repair protein RAD52 homolog (Homo sapiens, UniProt P43351); format: functional, biochemical
T9 sequence (P43351 whole entry): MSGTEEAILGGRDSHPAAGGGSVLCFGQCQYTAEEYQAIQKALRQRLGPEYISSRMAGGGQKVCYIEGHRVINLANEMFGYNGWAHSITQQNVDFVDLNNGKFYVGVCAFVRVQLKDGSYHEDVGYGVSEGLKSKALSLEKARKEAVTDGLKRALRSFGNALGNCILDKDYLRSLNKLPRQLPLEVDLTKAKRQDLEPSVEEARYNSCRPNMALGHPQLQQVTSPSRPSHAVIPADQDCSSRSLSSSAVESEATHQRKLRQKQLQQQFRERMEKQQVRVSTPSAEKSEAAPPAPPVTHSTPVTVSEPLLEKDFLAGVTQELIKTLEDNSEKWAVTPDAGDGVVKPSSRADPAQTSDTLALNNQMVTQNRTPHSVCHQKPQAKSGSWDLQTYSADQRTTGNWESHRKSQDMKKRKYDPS

[20] = MDA-MB-231 cell growth inhibition, dose response, cytotoxicity control for RAD54 inhibitor project, CellTiter-Glo luminescence, cherry-pick (AID 651692); format: functional, cell-based
[21] = target: T10, DNA repair and recombination protein RAD54-like (Homo sapiens, UniProt Q92698); test: inhibitors of human RAD54 branch migration, confirmation, biochemical, fluorescence, cherry-picked samples, dose series (AID 651657); format: functional
T10 sequence (Q92698 whole entry): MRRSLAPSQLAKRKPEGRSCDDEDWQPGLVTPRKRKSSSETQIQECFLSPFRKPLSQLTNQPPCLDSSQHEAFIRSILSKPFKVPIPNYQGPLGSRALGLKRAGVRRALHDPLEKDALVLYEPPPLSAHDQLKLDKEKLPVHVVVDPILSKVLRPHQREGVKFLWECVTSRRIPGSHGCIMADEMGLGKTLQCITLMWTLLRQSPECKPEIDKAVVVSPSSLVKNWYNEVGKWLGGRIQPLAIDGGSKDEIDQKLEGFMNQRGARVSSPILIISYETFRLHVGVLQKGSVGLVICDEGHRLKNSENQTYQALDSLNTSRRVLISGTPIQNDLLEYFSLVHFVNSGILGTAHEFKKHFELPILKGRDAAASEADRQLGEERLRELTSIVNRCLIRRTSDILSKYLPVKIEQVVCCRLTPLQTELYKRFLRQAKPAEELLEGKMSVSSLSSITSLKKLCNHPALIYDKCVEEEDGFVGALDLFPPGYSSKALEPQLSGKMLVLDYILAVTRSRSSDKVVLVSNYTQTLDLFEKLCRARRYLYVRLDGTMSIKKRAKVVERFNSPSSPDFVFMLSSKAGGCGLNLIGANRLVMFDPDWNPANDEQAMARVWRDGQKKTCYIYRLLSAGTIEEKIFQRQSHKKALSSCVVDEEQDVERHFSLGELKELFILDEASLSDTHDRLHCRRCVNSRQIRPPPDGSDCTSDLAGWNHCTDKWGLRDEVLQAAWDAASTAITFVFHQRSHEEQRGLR

[22] = target: T11, Sentrin-specific protease 8 (Homo sapiens, UniProt Q96LD8); format: functional
T11 sequence (Q96LD8 whole entry): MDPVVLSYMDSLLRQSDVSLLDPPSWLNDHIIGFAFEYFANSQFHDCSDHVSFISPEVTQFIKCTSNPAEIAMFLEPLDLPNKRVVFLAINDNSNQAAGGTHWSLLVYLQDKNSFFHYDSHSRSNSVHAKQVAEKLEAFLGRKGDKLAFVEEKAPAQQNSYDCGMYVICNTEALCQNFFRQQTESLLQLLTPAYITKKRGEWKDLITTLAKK

[23] = target: T11, Sentrin-specific protease 8; format: functional; remark: listed apart in the source

T1 sequence (Q932Y6 whole entry): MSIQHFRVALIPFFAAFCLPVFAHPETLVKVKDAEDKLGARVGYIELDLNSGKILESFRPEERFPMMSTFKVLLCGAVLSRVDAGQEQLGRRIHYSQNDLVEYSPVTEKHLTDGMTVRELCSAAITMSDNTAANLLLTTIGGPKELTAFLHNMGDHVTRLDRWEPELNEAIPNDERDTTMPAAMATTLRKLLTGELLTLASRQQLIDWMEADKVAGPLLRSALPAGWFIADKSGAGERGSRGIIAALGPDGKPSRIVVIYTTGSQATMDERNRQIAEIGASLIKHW
T5 sequence (P63165 whole entry): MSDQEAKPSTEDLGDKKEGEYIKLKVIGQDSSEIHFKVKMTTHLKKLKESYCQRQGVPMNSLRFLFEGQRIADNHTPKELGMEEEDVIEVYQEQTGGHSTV
T7 sequence (P61956 whole entry): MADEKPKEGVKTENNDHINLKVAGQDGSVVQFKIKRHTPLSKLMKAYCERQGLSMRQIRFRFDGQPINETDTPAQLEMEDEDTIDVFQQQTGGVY
T2 sequence (Q79MP6 whole entry, the tested form may be a part): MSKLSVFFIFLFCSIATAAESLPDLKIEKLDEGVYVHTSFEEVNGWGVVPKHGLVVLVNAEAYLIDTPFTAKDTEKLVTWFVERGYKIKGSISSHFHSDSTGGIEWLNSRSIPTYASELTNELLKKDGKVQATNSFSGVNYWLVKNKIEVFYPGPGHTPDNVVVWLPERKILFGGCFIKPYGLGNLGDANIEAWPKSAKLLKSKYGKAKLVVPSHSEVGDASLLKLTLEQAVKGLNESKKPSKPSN
Sequence of Dual specificity protein phosphatase 3 (P51452 whole entry): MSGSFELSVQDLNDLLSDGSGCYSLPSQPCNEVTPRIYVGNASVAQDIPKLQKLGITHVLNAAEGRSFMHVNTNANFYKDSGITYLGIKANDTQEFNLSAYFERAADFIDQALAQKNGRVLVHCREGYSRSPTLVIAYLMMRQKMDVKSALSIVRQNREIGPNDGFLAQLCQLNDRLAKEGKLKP
Sequence of Polyadenylate-binding protein 1 (P11940 whole entry): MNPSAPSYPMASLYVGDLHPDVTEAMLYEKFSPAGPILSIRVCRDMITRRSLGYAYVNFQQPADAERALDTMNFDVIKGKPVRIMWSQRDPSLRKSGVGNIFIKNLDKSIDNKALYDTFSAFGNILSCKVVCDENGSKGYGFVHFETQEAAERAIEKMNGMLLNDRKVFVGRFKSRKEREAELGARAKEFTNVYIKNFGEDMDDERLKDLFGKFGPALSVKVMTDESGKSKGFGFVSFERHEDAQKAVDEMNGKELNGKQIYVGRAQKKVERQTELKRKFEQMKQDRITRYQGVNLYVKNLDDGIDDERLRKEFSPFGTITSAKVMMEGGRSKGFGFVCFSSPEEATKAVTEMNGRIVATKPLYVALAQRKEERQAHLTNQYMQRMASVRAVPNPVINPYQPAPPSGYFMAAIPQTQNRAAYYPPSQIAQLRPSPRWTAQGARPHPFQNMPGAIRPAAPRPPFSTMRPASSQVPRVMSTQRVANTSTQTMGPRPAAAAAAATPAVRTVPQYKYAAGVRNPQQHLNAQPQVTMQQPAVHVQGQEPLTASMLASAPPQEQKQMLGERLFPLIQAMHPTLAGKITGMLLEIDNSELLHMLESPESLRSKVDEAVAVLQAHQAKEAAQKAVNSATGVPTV
Sequence of Beta-lactamase (Salmonella choleraesuis (strain SC-B67), UniProt Q5J463) (Q5J463 whole entry): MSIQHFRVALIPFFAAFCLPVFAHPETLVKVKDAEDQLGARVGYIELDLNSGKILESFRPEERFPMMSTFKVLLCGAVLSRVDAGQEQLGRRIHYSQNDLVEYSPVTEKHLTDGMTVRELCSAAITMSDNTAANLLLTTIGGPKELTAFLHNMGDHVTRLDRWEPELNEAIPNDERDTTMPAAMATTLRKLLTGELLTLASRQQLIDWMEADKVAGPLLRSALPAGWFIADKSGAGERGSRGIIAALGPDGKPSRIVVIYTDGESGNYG
Sequence of ADP-ribosylation factor GTPase-activating protein 1 (Q62848 whole entry): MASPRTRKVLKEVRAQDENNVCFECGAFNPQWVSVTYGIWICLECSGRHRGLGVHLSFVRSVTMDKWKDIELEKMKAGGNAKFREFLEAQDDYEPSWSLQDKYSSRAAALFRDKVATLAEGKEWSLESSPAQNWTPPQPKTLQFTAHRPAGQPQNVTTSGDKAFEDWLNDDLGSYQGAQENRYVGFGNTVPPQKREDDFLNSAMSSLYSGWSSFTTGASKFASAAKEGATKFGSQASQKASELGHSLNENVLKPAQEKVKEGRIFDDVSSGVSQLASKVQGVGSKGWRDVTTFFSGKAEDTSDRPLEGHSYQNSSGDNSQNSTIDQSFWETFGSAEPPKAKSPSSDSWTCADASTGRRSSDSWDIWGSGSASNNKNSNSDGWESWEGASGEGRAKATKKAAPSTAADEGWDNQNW
Sequence of Genome polyprotein (P29990 2492-3391 limits assumed): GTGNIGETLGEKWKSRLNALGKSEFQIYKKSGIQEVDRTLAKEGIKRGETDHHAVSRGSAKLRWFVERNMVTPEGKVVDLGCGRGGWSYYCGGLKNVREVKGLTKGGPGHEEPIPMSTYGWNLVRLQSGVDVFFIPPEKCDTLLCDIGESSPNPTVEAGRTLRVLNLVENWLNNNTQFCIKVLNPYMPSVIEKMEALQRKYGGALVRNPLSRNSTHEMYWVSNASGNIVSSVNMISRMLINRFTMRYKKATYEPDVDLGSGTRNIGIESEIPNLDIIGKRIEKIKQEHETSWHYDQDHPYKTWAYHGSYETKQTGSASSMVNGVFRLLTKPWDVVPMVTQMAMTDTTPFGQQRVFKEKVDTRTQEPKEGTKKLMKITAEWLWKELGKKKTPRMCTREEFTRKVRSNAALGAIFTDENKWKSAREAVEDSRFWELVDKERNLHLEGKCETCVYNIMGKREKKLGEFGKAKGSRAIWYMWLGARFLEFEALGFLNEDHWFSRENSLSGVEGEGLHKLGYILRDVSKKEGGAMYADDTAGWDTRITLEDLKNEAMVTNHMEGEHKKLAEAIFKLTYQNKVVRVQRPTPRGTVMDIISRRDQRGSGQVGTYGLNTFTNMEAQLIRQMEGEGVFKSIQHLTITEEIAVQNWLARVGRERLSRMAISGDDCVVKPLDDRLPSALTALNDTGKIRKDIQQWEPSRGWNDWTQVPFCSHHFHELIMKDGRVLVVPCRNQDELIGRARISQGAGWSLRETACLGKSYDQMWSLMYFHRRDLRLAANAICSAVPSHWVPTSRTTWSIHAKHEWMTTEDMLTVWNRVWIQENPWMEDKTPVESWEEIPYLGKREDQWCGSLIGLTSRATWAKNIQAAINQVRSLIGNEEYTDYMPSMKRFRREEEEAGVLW

SMILES: Cc1noc(C)c1S(=O)(=O)Nc1ccc2c(c1)C(=O)N([C@H](C)CO)C[C@H](C)[C@H](CN(C)Cc1ccc(C(F)(F)F)cc1)OCCCC[C@@H](C)O2
- AbsAC35 [1]: 79.09 µM

SMILES: Cc1ccc(NC(=O)NNC(=O)COc2ccc([N+](=O)[O-])cc2)cc1C
- IC50 [2]: 34.5 µM (inactive)

SMILES: Oc1c(Br)cc(/C=N/n2c(S)nnc2-c2ccccc2)cc1Br
- IC50 (Beta-lactamase [3]): > 59.6 µM (inactive)
- IC50 (Beta Lactamase [4]): 6.1 µM (active)
- IC50 (Beta Lactamase [5]): 19.3 µM (inactive)
- IC50 (Beta-lactamase [6]): > 59.6 µM (inactive)
- IC50 [7]: 1.54 µM (active)
- IC50 (Beta-lactamase [8]): > 19.9 µM (inactive)
- IC50 (Genome polyprotein): 27.5 µM (active)

SMILES: O=C(Nc1cc([N+](=O)[O-])ccc1O)c1cccc(C(=O)Nc2cc([N+](=O)[O-])ccc2O)c1
- IC50 [9]: 8.96 µM (active)
- IC50 [10]: 1.98 µM (active)
- IC50 [11]: 0.751 µM (active)
- IC50 [12]: 0.456 µM (active)
- IC50 [13]: > 66 µM (inactive)
- IC50 [7]: 1.03 µM (active)
- IC50 [14]: 9.33 µM (active)
- IC50 [15]: 53.8 µM (inactive)
- IC50 [16]: 0.509 µM (active)
- IC50 [17]: 7.71 µM (active)
- IC50 [18]: 8.76 µM (active)

SMILES: COc1cc(C(=O)NC2CCN(C)CC2)ccc1Nc1ncc2c(n1)N(C1CCCCC1)CCC(=O)N2C
- AC50 [19]: 5.86 µM (active)
- AC50 [20]: 32.5 µM (active)
- AC50 [21]: 12 µM (active)

SMILES: O=C(c1ccccc1)[C-](C(=O)c1ccc(Cl)cc1)[n+]1ccc2ccccc2c1
- IC50 [22]: > 100 µM (inactive)
- IC50 [23]: 9.23 µM (active)
